# According to paper PMC8472287, “Betulinic Acid Decorated with Polar Groups and Blue Emitting BODIPY Dye: Synthesis, Cytotoxicity, Cell-Cycle Analysis and Anti-HIV Profiling” (Biomedicines, 2021):
# Experiments:
# CCRF-CEM = test: MTS cytotoxicity assay, CCRF-CEM; type: cell-based; conditions: Homo sapiens, 72 h, 3-day incubation
# Description: (§1) All cells (if not indicated otherwise) were purchased from the American Tissue Culture Collection (ATCC; Manassas, VA, USA). The highly chemosensitive CCRF-CEM line is derived from T lymphoblastic leukaemia, K562 represent cells of chronic myelogenous leukaemia. Colorectal adenocarcinoma HCT116 cell line and its p53 gene knockout counterpart (HCT116p53−/−, Horizon Discovery Ltd., Cambridge, UK) were used as models to assess the impact of p53 deficiency on cell line sensitivity. A549 cells are derived from lung adenocarcinoma and U2OS from human osteosarcoma. CEM-DNR and K562-Tax are well-characterized daunorubicin and paclitaxel-resistant sublines of CCRF-CEM and K562. The CEM-DNR resistant cells overexpress the P-glycoprotein and LRP protein, the K562-Tax overexpress P-glycoprotein but is losing the expression of LRP, which is present at parental K562 cell line. P-glycoprotein belongs to the ABC transporters’ family and is involved in the primary and acquired multidrug resistance phenomenon by the efflux of toxic compounds, LRP protein is involved in the lysosomal degradation. MRC-5 and BJ cell lines were used as a non-tumour control and represent human fibroblasts. The cells were maintained in Nunc/Corning 80 cm^2 plastic tissue culture flasks and cultured in cell culture medium according to ATCC or Horizon recommendations (DMEM/RPMI 1640 with 5 g/L-glucose, 2 mM glutamine, 100 U/mL penicillin, […] streptomycin, 10% fetal calf serum, and NaHCO3).
# (§2) To perform the cytotoxicity MTS assay, cell suspensions were prepared and diluted according to the cell type and the expected target cell density (25,000–35,000 cells/mL) based on cell growth characteristics. Cells were added by an automatic pipettor (30 μL) into 384 well microtiter plates. All tested compounds were dissolved in 100% DMSO and four-fold dilutions of the intended test concentration were added in 0.15 μL aliquots at time zero to the microtiter plate wells by the echo-acoustic liquid handler Echo550 (Labcyte, San Jose, CA, USA). The experiments were performed in technical duplicates and at least three biological replicates. The cells were incubated with the tested compounds for 72 h at 37 °C, in a 5% CO2 atmosphere at 99% humidity. At the end of the incubation period, the cells were assayed by using the MTS test. Aliquots (5 µL) of the MTS stock solution were pipetted into each well and incubated for an additional 1–4 h. After this incubation period, the optical density (OD) was measured at 490 nm with an Envision microplate reader (Perkin Elmer, Waltham, Massachusetts, USA). Tumour cell survival (TCS) was calculated using the following equation: TCS = (ODdrug-exposed well/mean ODcontrol wells) × 100%.
# CEM-DNR = test: MTS cytotoxicity assay, CEM-DNR; type: cell-based; conditions: Homo sapiens, 72 h, CEM-DNR (daunorubicin resistant), 3-day incubation
# Description: as §1, §2
# K562 = test: MTS cytotoxicity assay, K562; type: cell-based; conditions: Homo sapiens, 72 h, 3-day incubation
# Description: as §1, §2
# K562-Tax = test: MTS cytotoxicity assay, K562-Tax; type: cell-based; conditions: Homo sapiens, 72 h, K562-Tax (paclitaxel-resistant), 3-day incubation
# Description: as §1, §2
# A549 = test: MTS cytotoxicity assay, A549; type: cell-based; conditions: Homo sapiens, 72 h, 3-day incubation
# Description: as §1, §2
# HCT116 = test: MTS cytotoxicity assay, HCT116; type: cell-based; conditions: Homo sapiens, HCT-116, 72 h, 3-day incubation
# Description: as §1, §2
# HCT116p53−/− = test: MTS cytotoxicity assay, HCT116p53−/−; type: cell-based; conditions: Homo sapiens, HCT116-p53-null, 72 h, HCT116p53−/− (null p53 gene), 3-day incubation
# Description: as §1, §2
# U2OS = test: MTS cytotoxicity assay, U2OS; type: cell-based; conditions: Homo sapiens, 72 h, 3-day incubation
# Description: as §1, §2
# MRC-5 = test: MTS cytotoxicity assay, MRC-5; type: cell-based; conditions: Homo sapiens, MRC5, 72 h, MRC-5 normal fibroblasts, 3-day incubation
# Description: as §1, §2
# BJ = test: MTS cytotoxicity assay, BJ; type: cell-based; conditions: Homo sapiens, 72 h, BJ normal fibroblasts, 3-day incubation
# Description: as §1, §2
# [1] = tested on: VSV-G pseudotyped HIV-1 particles; test: microbe, parasite or virus in culture; type: cell-based; conditions: Human immunodeficiency virus 1, HEK293, 48 h, read-out: IC50i (50% infection inhibition)
# [2] = tested on: CA-SP1 processing of HIV-1 Gag polyprotein; test: Western blot of released virions with anti-HIV-1 CA antibody; type: cell-based
# U2OS-Nuc cell line = test: Live cell imaging, pilot experiment; type: cell-based, human; conditions: 10 µM, 1 h incubation
# Experimental: (§3) U2OS cell line (ATCC, USA) was transduced with premade lentiviral particles (Vectalis-TaKaRa, Japan) with sequences that express fluorescent protein tag mCherry targeted to specific subcellular locations. All cell lines were prepared according to the vendor’s instructions. The U2OS-Nuc cell line was prepared by using rLV.EF1.mCherry-Nuc-9 (cat. n. 0023VCT), containing a NLS sequence that imports protein into the nucleus. The U2OS-ER cell line was transduced by rLV.EF1.mCherry-ER-9 (cat. n. 0025VCT), which contains a calreticulin signal sequence and a KDEL sequence that associates protein with the endoplasmic reticulum. The U2OS-GA cell line was transduced by rLV.EF1.mCherry-Golgi-9 (cat. n. 0022VCT), containing a human GT precursor, a protein localized in Golgi Apparatus. The U2OS-Mito cell line was prepared by using rLV.EF1.mCherry-Mito-9 (cat. n. 0024VCT), containing a mitochondrial targeting sequence.
# (§4) U2OS cells with fluorescent fusion proteins (density 1.0 × 10^3 per well) were seeded into 384 CellCarrier plates (Perkin Elmer, Waltham, MA, USA) and pre-incubated for 24 h at 37 °C and 5% CO2. The attached cells were treated with tested compounds in concentration 10 µM for 1 h and subsequently rinsed with fresh media. The live-cell imaging was performed by Cell Voyager CV7000 (Yokogawa, Tokyo, Japan) spinning disc confocal microscopy system at 37 °C in a 5% CO2 atmosphere. Live cells were monitored by a 60 × water immersion objective. The fluorescent signal was excited by lasers (405 nm and 561 nm) and the emission was filtered by bandpass filters (BP 445/45 and BP 595/20). All images were post-processed, and Pearson’s and Mander’s coefficients were calculated using the JACoP plugin in Image-J software.
# [3] = tested on: U2OS-ER, U2OS-Mito and U2OS-GA cell lines; test: Live cell colocalization experiments; type: cell-based, human; conditions: 10 µM, 1 h, Mander's coefficient
# Experimental: as §3, §4
# in vitro = conditions: human
# CCRF-CEM lymphoblasts [4] = test: Mitotic marker pH3Ser10 flow cytometry; type: cell-based, human; conditions: 5 × IC50
# Experimental: (§5) CCRF-CEM cells were seeded in 6-well plates at a density of 1 × 10^6/well. […] Cells were then harvested, washed with cold 1 × PBS and fixed in ice-cold 70% ethanol. Fixed cells were incubated overnight at −20 °C, washed in hypotonic citrate buffer, treated with RNase (50 μg mL^−1) and incubated with propidium iodide for 15 min. DNA content was analysed using Becton Dickinson flow cytometer and cell cycle data were analysed in the program ModFitLT (Verity, Carrollton, TX, USA). Apoptosis was measured in a logarithmic model expressing the percentage of the particles with propidium content lower than cells in G0/G1 phase (<G1) of the cell cycle. The mitotic marker pH3Ser10 antibody (Sigma) and secondary anti-mouse-FITC antibody (Sigma) were used for labelling and subsequent flow cytometry analysis of ethanol-fixed CCRF-CEM cells.
# CCRF-CEM lymphoblasts [5] = test: BrDU incorporation analysis (DNA synthesis); type: cell-based, human; conditions: 24 h incubation
# Experimental: Cells were cultivated as in the method above and pulse-labelled with 10 μM 5-bromo-2-deoxyuridine (BrDU) for 30 min before collection to the test tubes. The cells were washed with cold 1 × PBS and fixed in ice-cold 70% ethanol. Before analysis, they were washed with 1 × PBS and incubated in 2M HCl for 30 min at room temperature. Following neutralization with 0.1M Na2B4O7 (borax), the cells were washed with 0.5% Tween-20 and 1% BSA in 1 × PBS. The cell pellets were stained using a primary anti-BrdU antibody (Exbio, Vestec, Czech Republic) for 30 min at room temperature and a secondary anti-mouse-FITC antibody (Sigma). The samples were then incubated with propidium iodide (0.1 mg mL^−1), treated with RNase A (0.5 mg mL^−1) for 1 h at room temperature in the dark and analysed as above.
# CCRF-CEM lymphoblasts [6] = test: Cell cycle and apoptosis analysis (flow cytometry, propidium iodide); type: cell-based, human; conditions: 5 × IC50
# Experimental: as §5
compound,measurement,setting,value
"C=C(C)[C@@H]1CC[C@]2(C(=O)NCCCNC3=C4C=CC=[N+]4[B-](F)(F)n4cccc43)CC[C@]3(C)[C@H](CC[C@@H]4[C@@]5(C)CC[C@H](O)C(C)(C)[C@@H]5CC[C@]43C)[C@@H]12 [Compound 4, (3β)-N-[N’-(4,4-Difluoro-4-bora-3a,4a-diaza-s-indacene-8-yl)-3-aminopropyl]-3-hydroxylup-20(29)-ene-28-amide]",IC50,CCRF-CEM,23.7 µM
same,IC50,CEM-DNR,> 50 µM
same,IC50,K562,> 50 µM
same,IC50,K562-Tax,> 50 µM
same,IC50,A549,> 50 µM
same,IC50,HCT116,> 50 µM
same,IC50,HCT116p53−/−,> 50 µM
same,IC50,U2OS,> 50 µM
same,IC50,MRC-5,> 50 µM
same,IC50,BJ,> 50 µM
same,IC50,[1],44.1 µM
same,CA forms identified in released viruses (CA-SP1 processing),[2],Only completely processed p24 CA
same,detection in living cells,U2OS-Nuc cell line,detected in living cells
same,colocalization with cellular structures,[3],almost perfectly label mitochondria and endoplasmic reticulum
same,cytotoxic effect in the cell line panel (in words),entire cell line panel,inactive
same,IC50,in vitro,> 40 µM
"C=C(C)[C@@H]1CC[C@]2(C(=O)NCCCN)CC[C@]3(C)[C@H](CC[C@@H]4[C@@]5(C)CC[C@H](OC(=O)CCNC6=C7C=CC=[N+]7[B-](F)(F)n7cccc76)C(C)(C)[C@@H]5CC[C@]43C)[C@@H]12 [Compound 6, (3β)-N-(3-Aminopropyl)-3-[N´-(4,4-difluoro-4-bora-3a,4a-diaza-s-indacene-8-yl)-β-alanyl]-oxy-lup-20(29)-ene-28-amide]",IC50,CCRF-CEM,1.55 µM
same,IC50,CEM-DNR,11.5 µM
same,IC50,K562,5.25 µM
same,IC50,K562-Tax,31.8 µM
same,IC50,A549,6.65 µM
same,IC50,HCT116,3.85 µM
same,IC50,HCT116p53−/−,3.39 µM
same,IC50,U2OS,5 µM
same,IC50,MRC-5,8.07 µM
same,IC50,BJ,8.37 µM
same,rate of cell division by mitotic marker pH3Ser10 (in words),CCRF-CEM lymphoblasts [4],low rate of cell division
same,fraction of proliferating BrDU positive CCRF-CEM cells (in words),CCRF-CEM lymphoblasts [5],reduced the fraction of proliferating BrDU positive CCRF-CEM cells
same,detection in living cells,U2OS-Nuc cell line,detected in living cells
same,colocalization with cellular structures,[3],almost perfectly label mitochondria and endoplasmic reticulum
same,cytotoxic effect in the cell line panel (in words),entire cell line panel,high cytotoxicity
same,IC50,in vitro,12 µM
"C=C(C)[C@@H]1CC[C@]2(C(=O)N3CCN(CCNC(=O)OC(C)(C)C)CC3)CC[C@]3(C)[C@H](CC[C@@H]4[C@@]5(C)CC[C@H](OC(C)=O)C(C)(C)[C@@H]5CC[C@]43C)[C@@H]12 [Compound 12, (3β)-28-(4-{2-[(Tert-butoxycarbonyl)amino]ethyl}piperazine-1-yl)-28-oxolup-20(29)-ene-3-yl acetate]",IC50,CCRF-CEM,9.62 µM
same,IC50,CEM-DNR,> 50 µM
same,IC50,K562,> 50 µM
same,IC50,K562-Tax,> 50 µM
same,IC50,A549,> 50 µM
same,IC50,HCT116,> 50 µM
same,IC50,HCT116p53−/−,> 50 µM
same,IC50,U2OS,> 50 µM
same,IC50,MRC-5,> 50 µM
same,IC50,BJ,> 50 µM
same,increase of the percentage of cells in the S-phase compared to untreated control,CCRF-CEM lymphoblasts [6],about 50%
same,rate of cell division by mitotic marker pH3Ser10 (in words),CCRF-CEM lymphoblasts [4],low rate of cell division
same,fraction of proliferating BrDU positive CCRF-CEM cells (in words),CCRF-CEM lymphoblasts [5],increased the percentage of cells incorporating BrDU
same,IC50,[1],31.9 µM
same,CA forms identified in released viruses (CA-SP1 processing),[2],Only completely processed p24 CA
same,cytotoxic effect in the cell line panel (in words),entire cell line panel,inactive
same,IC50,in vitro,> 40 µM
